Assay results published in patent publication US20240002846A1, “COMPOSITIONS AND METHODS FOR THE DIAGNOSIS AND TREATMENT OF ITCH” (Duke University, priority 2020, published 2024).

Legend:
[1] = tested on: human keratinocytes; assay: Ca2+ imaging in cultured human keratinocytes; type: cell-based; conditions: inhibitor 10 μM
Description: In brief, surgically discarded foreskin samples, obtained from Duke Children's Hospital in accordance to institutionally approved IRB protocol, were incubated with Dispase (Gibco, Gaithersburg, MD, 4 U/mL) for 12-16 h at 4° C. followed by 0.05% trypsin (Gibco, Gaithersburg, MD) for 10-20 min at 37° C. Cells were maintained in keratinocyte serum-free media (Invitrogen, Waltham, MA) with 5% CO2 at 37° C. and used at passage 2-3.
In vitro and ex vivo Ca^2+ imaging. […] Ca^2+ imaging of cultured cells in response to chemicals was conducted after loading with 5 μM Fura2-AM (Invitrogen, Waltham, MA) for 45 min after a ratiometric Ca^2+-imaging protocol with 340/380-nm blue light for dual excitation. Ratios of emissions were acquired at 0.5 Hz. ΔR/R0 was determined as the fraction of the increase of a given ratio over baseline ratio divided by baseline ratio. […] Control cells received vehicles.

[2] = biological target: T1, hTRPV4 (Homo sapiens, UniProt Q9HBA0); assay: Inside-out patch-clamp, hTRPV4; type: biochemical; conditions: 5 μM LPC 18:1; WT-hTRPV4
T1 construct: expressed in transfected cells; host or cells: HEK293 (ATCC CRL-1573)
Description: (§1) Cell culture and transfection. HEK293 cells (ATCC® CRL-1573) were cultured on poly-D-lysine coated coverslips in 24-well plate containing DMEM media with high-Glucose (Gibco, Gaithersburg, MD) supplemented with 10% fetal bovine serum (FBS, HyClone Laboratories, Logan, UT) and 100 U/mL of penicillin/streptomycin (Gibco, Gaithersburg, MD). Cell cultures were maintained with 5% of CO2 in a humidified incubator at 37° C. HEK cells were transfected with rat or human wild type or mutant TRPV4 channels with EGFP or YFP coupled to their C-termini (1.5 μg of plasmid for excised patch clamp and Ca^2+ imaging and 200 ng for single-channel experiments). […]
(§2) Electrophysiology. Currents were recorded using the inside-out configuration of the patch-clamp technique (Hamill et al. Pflugers Arch. 1981, 391, 85-100). […] Mean current values in response to GSK1016790A or LPC 18:1 were measured after channel activation had reached the steady-state (˜3 min). […] Currents were low-pass filtered at 2 kHz and sampled at 10 kHz with an EPC 10 amplifier (HEKA Elektronik) and were plotted and analyzed with Igor Pro (Wavemetrics Inc.).

[3] = biological target: rTRPV4-R746D (Rattus norvegicus, UniProt Q9ERZ8, R746D); assay: Inside-out patch-clamp, HEK cells transfected with rTRPV4-R746D; type: biochemical; parameters: expressed in transfected cells; host or cells: HEK293; conditions: 5 μM LPC 18:1
Description: as §1, §2

[4] = biological target: T1, hTRPV4; assay: Single-channel recordings of hTRPV4 in HEK293 cells; type: biochemical; conditions: +60 mV; 100 nM GSK101 or 5 μM LPC 18:1
Description: Cell culture and transfection. HEK293 cells (ATCC® CRL-1573) were cultured on poly-D-lysine coated coverslips in 24-well plate containing DMEM media with high-Glucose (Gibco, Gaithersburg, MD) supplemented with 10% fetal bovine serum (FBS, HyClone Laboratories, Logan, UT) and 100 U/mL of penicillin/streptomycin (Gibco, Gaithersburg, MD). Cell cultures were maintained with 5% of CO2 in a humidified incubator at 37° C. HEK cells were transfected with rat or human wild type or mutant TRPV4 channels with EGFP or YFP coupled to their C-termini (1.5 μg of plasmid for excised patch clamp and Ca^2+ imaging and 200 ng for single-channel experiments). The jetPEI™ Polyplus transfection reagent (Polyplus Transfection, New York, NY) for electrophysiology or Lipofectamine™ 2000 Reagent (Invitrogen, Waltham, MA) for Ca^2+ imaging were used for transfections per manufacturer's instructions as previously described (Chen et al. Pain 2014, 155, 2662-2672; Morales-Lazaro et al. Nat. Commun. 2016, 7, 13092). To investigate whether miR-146a can directly activate TRPV1 channels or indirectly via TLRs, HEK293 cells were transfected with rTRPV1 or co-transfected rTRPV1 with rTLR7, rTLR2, or rTLR6 (Addgene, Watertown, MA) for Ca^2+ imaging assay. Control cells were transfected with GFP or YFP.
For single-channel recordings, Borosilicate glass […]) pipettes were used. Recordings were obtained at +60 mV by acquiring several traces of 1-3 s duration. The effect of GSK1016790A or LPC 18:1 on single TRPV4 channels was studied in inside-out. Currents were filtered at 2 kHz and sampled at 5 kHz. […] Single-channel openings and closures were identified with the half-threshold crossing technique (Morales-Lazaro et al. Nat. Commun. 2016, 7, 13092). The channel open probability was calculated as the sum of the total open time divided by the sweep duration. Dwell times and amplitude histograms in the closed or open states were collected in logarithmic time histograms according to the Sine-Sigworth transformation (Sigworth et al. Biophys. J. 1987, 52, 1047-1054). Sums of three or two exponential components were fitted to histograms using a least-squares algorithm.

[5] = biological target: T2, hTRPV4-R746G (Homo sapiens, UniProt Q9HBA0, R746G); assay: Inside-out patch-clamp, hTRPV4-R746G; type: biochemical; conditions: 5 μM LPC 18:1
T2 construct: expressed in transfected cells; host or cells: HEK293
Description: as §1, §2

T1 sequence (Q9HBA0 whole entry): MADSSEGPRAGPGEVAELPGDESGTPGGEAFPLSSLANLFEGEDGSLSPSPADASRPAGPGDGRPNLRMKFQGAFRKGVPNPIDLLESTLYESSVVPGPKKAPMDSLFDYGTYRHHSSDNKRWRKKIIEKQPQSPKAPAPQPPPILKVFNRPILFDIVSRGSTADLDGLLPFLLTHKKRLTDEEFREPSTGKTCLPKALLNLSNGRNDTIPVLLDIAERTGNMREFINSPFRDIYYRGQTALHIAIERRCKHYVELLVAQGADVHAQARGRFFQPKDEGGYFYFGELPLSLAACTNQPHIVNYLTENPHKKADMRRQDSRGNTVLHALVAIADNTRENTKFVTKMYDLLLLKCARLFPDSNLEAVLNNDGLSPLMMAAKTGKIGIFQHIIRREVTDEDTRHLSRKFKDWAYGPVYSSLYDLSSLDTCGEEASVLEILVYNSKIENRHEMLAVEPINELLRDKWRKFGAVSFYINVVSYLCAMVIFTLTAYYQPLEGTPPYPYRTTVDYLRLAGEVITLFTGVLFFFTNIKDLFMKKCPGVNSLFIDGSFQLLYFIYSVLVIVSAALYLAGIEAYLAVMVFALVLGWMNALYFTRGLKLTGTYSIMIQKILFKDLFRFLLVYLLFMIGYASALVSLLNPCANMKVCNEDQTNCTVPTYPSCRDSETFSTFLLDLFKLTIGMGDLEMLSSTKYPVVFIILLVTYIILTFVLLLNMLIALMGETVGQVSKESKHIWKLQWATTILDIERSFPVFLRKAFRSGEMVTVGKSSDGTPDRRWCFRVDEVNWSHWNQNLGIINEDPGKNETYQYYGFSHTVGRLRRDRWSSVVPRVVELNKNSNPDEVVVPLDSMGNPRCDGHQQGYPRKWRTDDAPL
Sequence of rTRPV4-R746D (Q9ERZ8 whole entry R746D): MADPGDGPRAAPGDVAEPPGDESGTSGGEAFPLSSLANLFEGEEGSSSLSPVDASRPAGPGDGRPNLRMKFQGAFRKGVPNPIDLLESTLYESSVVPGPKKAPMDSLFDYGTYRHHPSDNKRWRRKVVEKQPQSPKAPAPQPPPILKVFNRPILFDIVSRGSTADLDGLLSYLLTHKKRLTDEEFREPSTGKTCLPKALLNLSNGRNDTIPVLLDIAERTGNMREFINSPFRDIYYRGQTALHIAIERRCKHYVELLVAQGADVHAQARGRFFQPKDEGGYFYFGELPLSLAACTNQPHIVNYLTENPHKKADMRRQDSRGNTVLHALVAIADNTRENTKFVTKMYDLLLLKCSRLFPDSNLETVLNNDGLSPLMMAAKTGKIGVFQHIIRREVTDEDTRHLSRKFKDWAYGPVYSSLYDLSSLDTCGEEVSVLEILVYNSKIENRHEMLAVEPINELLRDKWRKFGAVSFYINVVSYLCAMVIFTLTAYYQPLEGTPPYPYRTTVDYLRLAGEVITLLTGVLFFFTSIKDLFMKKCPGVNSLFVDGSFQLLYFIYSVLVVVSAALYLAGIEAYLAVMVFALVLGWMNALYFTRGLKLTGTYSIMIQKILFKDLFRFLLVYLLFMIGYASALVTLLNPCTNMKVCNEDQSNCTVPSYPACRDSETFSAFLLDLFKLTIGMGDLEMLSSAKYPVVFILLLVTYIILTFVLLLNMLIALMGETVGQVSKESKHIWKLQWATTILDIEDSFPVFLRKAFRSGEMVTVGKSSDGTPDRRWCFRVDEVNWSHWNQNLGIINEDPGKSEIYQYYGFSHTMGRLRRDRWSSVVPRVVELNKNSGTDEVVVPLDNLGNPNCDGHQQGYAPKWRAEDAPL
T2 sequence (Q9HBA0 whole entry R746G): as the sequence (Q9HBA0 whole entry) above, with R746G counted along it

Compound	effect on LPA 18:1 (10 μM) induced Ca2+ signal [1]	effect on LPC (10 μM) induced Ca2+ signal [1]	average activation of currents, normalized to 1 μM GSK101 [2] [%]	average activation of currents, normalized to 1 μM GSK101 [3] [%]	open level (single-channel) amplitude [4] [pA]	open probability (Po) [4]	single channel conductance (gi) [4] [pS]	average activation of currents, normalized to 1 μM GSK101 [5] [%]
Cc1c(C(=O)Nc2cccc(C(F)(F)F)c2)cc(-c2ccccc2)n1CCCN1CCOCC1 [HC067047]	remained unchanged	significantly reduced						
LPC 18:1			48±6	15±3	3.27±0.41	0.75±0.08	54.5	13±4
